{"source": "paper PMC7069944", "about": "“Amino acid levels determine metabolism and CYP450 function of hepatocytes and hepatoma cell lines” (Nature Communications, 2020)", "key": {"HLC": {"system": "HLC", "assay": "Repeated-exposure DILI training compounds, resazurin conversion, HLC", "conditions": "replicates, listed as Ximelatagran", "method_in_brief": "(§1)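 PSC-derived cells differentiated in 384-well format, plus HepG2 seeded at 40,000 cells/well, received drugs after 8 h of attachment; untreated wells served as negative controls. Viability was measured by resazurin conversion and related to therapeutic Cmax values.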"}, "HC6X": {"system": "HC6X", "assay": "Repeated-exposure DILI training compounds, resazurin conversion, HC6X", "conditions": "replicates, listed as Ximelatagran", "method_in_brief": "as §1"}, "HepG2": {"system": "HepG2", "assay": "Repeated-exposure DILI training compounds, resazurin conversion, HepG2", "conditions": "replicates, listed as Ximelatagran", "method_in_brief": "as §1"}, "HC3X": {"system": "HC3X", "assay": "Repeated-exposure DILI training compounds, resazurin conversion, HC3X", "conditions": "for resazurin conversion (Supplementary Figure 7D): HC3X AAGLY D40, replicates, listed as Ximelatagran", "method_in_brief": "as §1"}}, "note": "“And” between values parts separate entries of the source, which are not always exact repeats. Equal values may be shown once.", "data": [{"smiles": "CCOC(=O)CN[C@@H](C(=O)N1CC[C@H]1C(=O)NCc1ccc(/C(N)=N\\O)cc1)C1CCCCC1", "note": "[ximelagatran]", "values": [{"measurement": "resazurin conversion (Supplementary Figure 7D)", "setting": "HLC; HLC AAGLY D40, 30 uM", "value": "87.9 and 61.4 and 89.7 and 86.8 and 95.5 and 101.7"}, {"measurement": "resazurin conversion (Supplementary Figure 7D)", "setting": "HLC; HLC AAGLY D40, 50 uM", "value": "102.7 and 110.5 and 84 and 85.7 and 101.4 and 47.2"}, {"measurement": "resazurin conversion (Supplementary Figure 7D)", "setting": "HLC; HLC AAGLY D40, 100 uM", "value": "101.8 and 83.1 and 91.6 and 97.8 and 108.1 and 71.2"}, {"measurement": "resazurin conversion (Supplementary Figure 7D)", "setting": "HLC; HLC AAGLY D40, 300 uM", "value": "102 and 100.4 and 103.4 and 99.6 and 91.1 and 43.4"}, {"measurement": "resazurin conversion (Supplementary Figure 7D)", "setting": "HLC; HLC AAGLY D40, 500 uM", "value": "103.1 and 102.1 and 106.2 and 106.4 and 103.3 and 93.1"}, {"measurement": "resazurin conversion (Supplementary Figure 7D)", "setting": "HLC; HLC AAGLY D40, 1000 uM", "value": "124.2 and 94.4 and 100.6 and 122 and 108.3 and 107.9"}, {"measurement": "resazurin conversion (Supplementary Figure 7D)", "setting": "HLC; HLC AAGLY D40, 2000 uM", "value": "74 and 131.7 and 126.4 and 135.7 and 116.8 and 129.6"}, {"measurement": "resazurin conversion (Supplementary Figure 7D)", "setting": "HLC; HLC AAGLY D40, 4000 uM", "value": "129.4 and 115 and 25.5 and 112.7 and 127.1 and 50.9"}, {"measurement": "resazurin conversion (Supplementary Figure 7D)", "setting": "HLC; HLC LDM D40, 10 uM", "value": "103 and 119.6 and 106.5 and 118.8"}, {"measurement": "resazurin conversion (Supplementary Figure 7D)", "setting": "HLC; HLC LDM D40, 30 uM", "value": "98.9 and 98.8 and 106 and 104.1 and 100.4 and 102.4"}, {"measurement": "resazurin conversion (Supplementary Figure 7D)", "setting": "HLC; HLC LDM D40, 50 uM", "value": "120.6 and 118.1 and 72.7 and 111.9 and 69.1 and 123.9"}, {"measurement": "resazurin conversion (Supplementary Figure 7D)", "setting": "HLC; HLC LDM D40, 100 uM", "value": "93.8 and 126.7 and 78.4 and 121.1 and 87.3 and 126.3"}, {"measurement": "resazurin conversion (Supplementary Figure 7D)", "setting": "HLC; HLC LDM D40, 300 uM", "value": "125.4 and 106 and 125.6 and 93.6 and 136.9 and 112.2"}, {"measurement": "resazurin conversion (Supplementary Figure 7D)", "setting": "HLC; HLC LDM D40, 500 uM", "value": "130.3 and 128.1 and 99.5 and 124.6 and 98 and 115.9"}, {"measurement": "resazurin conversion (Supplementary Figure 7D)", "setting": "HLC; HLC LDM D40, 1000 uM", "value": "132.9 and 140 and 126.4 and 146.9 and 116.4 and 158.5"}, {"measurement": "resazurin conversion (Supplementary Figure 7D)", "setting": "HLC; HLC LDM D40, 2000 uM", "value": "87.8 and 64.2 and 95.2 and 125.1 and 69.7 and 117.1"}, {"measurement": "resazurin conversion (Supplementary Figure 7D)", "setting": "HLC; HLC LDM D40, 4000 uM", "value": "52.7 and 74.5 and 71.5 and 69.4 and 112 and 163.8"}, {"measurement": "resazurin conversion (Supplementary Figure 7D)", "setting": "HC6X; HC6X AAGLY D40, 10 uM", "value": "93.8 and 58.7 and 78.1 and 118.1"}, {"measurement": "resazurin conversion (Supplementary Figure 7D)", "setting": "HC6X; HC6X AAGLY D40, 30 uM", "value": "71.1 and 54.3 and 108.4 and 77.4 and 109.2 and 98.7"}, {"measurement": "resazurin conversion (Supplementary Figure 7D)", "setting": "HC6X; HC6X AAGLY D40, 50 uM", "value": "68.8 and 53.6 and 125.9 and 98.4 and 222.1 and 82.6"}, {"measurement": "resazurin conversion (Supplementary Figure 7D)", "setting": "HC6X; HC6X AAGLY D40, 100 uM", "value": "99.7 and 88.3 and 135.4 and 113.5 and 107.4 and 93.9"}, {"measurement": "resazurin conversion (Supplementary Figure 7D)", "setting": "HC6X; HC6X AAGLY D40, 300 uM", "value": "82 and 93.2 and 129.1 and 140.3 and 141.2 and 166.5"}, {"measurement": "resazurin conversion (Supplementary Figure 7D)", "setting": "HC6X; HC6X AAGLY D40, 500 uM", "value": "65.3 and 103.3 and 98.2 and 91.7 and 122.8 and 148.3"}, {"measurement": "resazurin conversion (Supplementary Figure 7D)", "setting": "HC6X; HC6X AAGLY D40, 1000 uM", "value": "71.6 and 76.5 and 78.4 and 144 and 115.7 and 139.1"}, {"measurement": "resazurin conversion (Supplementary Figure 7D)", "setting": "HC6X; HC6X AAGLY D40, 2000 uM", "value": "61.7 and 53.9 and 78.6 and 67 and 113.9 and 90"}, {"measurement": "resazurin conversion (Supplementary Figure 7D)", "setting": "HC6X; HC6X AAGLY D40, 4000 uM", "value": "54.4 and 81.3 and 84.4 and 85.7 and 55.2 and 56.8"}, {"measurement": "resazurin conversion (Supplementary Figure 7D)", "setting": "HC6X; HC6X AAGLY D40 Remove dox, 30 uM", "value": "72.9 and 78.3 and 89.9 and 101.5 and 95.4 and 95.8"}, {"measurement": "resazurin conversion (Supplementary Figure 7D)", "setting": "HC6X; HC6X AAGLY D40 Remove dox, 50 uM", "value": "55.3 and 86.1 and 70.5 and 85.8 and 92.1 and 68.6"}, {"measurement": "resazurin conversion (Supplementary Figure 7D)", "setting": "HC6X; HC6X AAGLY D40 Remove dox, 100 uM", "value": "82.1 and 85 and 79 and 110.7 and 88.3 and 96.6"}, {"measurement": "resazurin conversion (Supplementary Figure 7D)", "setting": "HC6X; HC6X AAGLY D40 Remove dox, 300 uM", "value": "99.4 and 92.8 and 102.5 and 91.4 and 94.8 and 77.9"}, {"measurement": "resazurin conversion (Supplementary Figure 7D)", "setting": "HC6X; HC6X AAGLY D40 Remove dox, 500 uM", "value": "78.1 and 81.7 and 105.3 and 97 and 101.1 and 82.7"}, {"measurement": "resazurin conversion (Supplementary Figure 7D)", "setting": "HC6X; HC6X AAGLY D40 Remove dox, 1000 uM", "value": "77.2 and 89.1 and 81.5 and 96.6 and 108.9 and 116.8"}, {"measurement": "resazurin conversion (Supplementary Figure 7D)", "setting": "HC6X; HC6X AAGLY D40 Remove dox, 2000 uM", "value": "95.3 and 105.5 and 72.8 and 94.8 and 76.2 and 80.9"}, {"measurement": "resazurin conversion (Supplementary Figure 7D)", "setting": "HC6X; HC6X AAGLY D40 Remove dox, 4000 uM", "value": "46.6 and 40.3 and 96 and 68.1 and 83.6 and 42.4"}, {"measurement": "resazurin conversion (Supplementary Figure 7D)", "setting": "HepG2; HepG2 AAGLY D30, 10 uM", "value": "94.6 and 101.9 and 93.6"}, {"measurement": "resazurin conversion (Supplementary Figure 7D)", "setting": "HepG2; HepG2 AAGLY D30, 30 uM", "value": "92.6 and 98.4 and 83.3 and 96.4 and 96.6 and 94.8"}, {"measurement": "resazurin conversion (Supplementary Figure 7D)", "setting": "HepG2; HepG2 AAGLY D30, 50 uM", "value": "93.8 and 101.4 and 83.8 and 100.6 and 100.8 and 103"}, {"measurement": "resazurin conversion (Supplementary Figure 7D)", "setting": "HepG2; HepG2 AAGLY D30, 100 uM", "value": "87.1 and 96.4 and 79.9 and 96 (2×) and 99.8"}, {"measurement": "resazurin conversion (Supplementary Figure 7D)", "setting": "HepG2; HepG2 AAGLY D30, 300 uM", "value": "79.2 and 92.1 and 83.1 and 91.5 (2×) and 86.4"}, {"measurement": "resazurin conversion (Supplementary Figure 7D)", "setting": "HepG2; HepG2 AAGLY D30, 500 uM", "value": "73.8 and 82.7 and 72.5 and 77.3 and 81.8 and 90.8"}, {"measurement": "resazurin conversion (Supplementary Figure 7D)", "setting": "HepG2; HepG2 AAGLY D30, 1000 uM", "value": "33.4 and 32.8 and 32.2 and 33.5 and 33 and 34"}, {"measurement": "resazurin conversion (Supplementary Figure 7D)", "setting": "HepG2; HepG2 AAGLY D30, 2000 uM", "value": "32.1 and 33.4 and 32.3 and 33 and 31.5 and 35.4"}, {"measurement": "resazurin conversion (Supplementary Figure 7D)", "setting": "HepG2; HepG2 AAGLY D30, 4000 uM", "value": "32.2 and 33.1 and 31.8 and 32.9 (2×) and 31.4"}, {"measurement": "resazurin conversion (Supplementary Figure 7D)", "setting": "HepG2; HepG2 CTL D7, 10 uM", "value": 100}, {"measurement": "resazurin conversion (Supplementary Figure 7D)", "setting": "HepG2; HepG2 CTL D7, 30 uM", "value": "113.6 and 106.8 and 92.5 and 99.4 and 103.9 and 98.2"}, {"measurement": "resazurin conversion (Supplementary Figure 7D)", "setting": "HepG2; HepG2 CTL D7, 50 uM", "value": "100.3 and 102 and 94.9 and 85.4 and 97.6 and 93"}, {"measurement": "resazurin conversion (Supplementary Figure 7D)", "setting": "HepG2; HepG2 CTL D7, 100 uM", "value": "99.5 and 95.1 and 87 and 84.8 and 92.1 and 91.7"}, {"measurement": "resazurin conversion (Supplementary Figure 7D)", "setting": "HepG2; HepG2 CTL D7, 300 uM", "value": "98.7 and 94.5 and 90.1 and 84 and 87.6 and 84.8"}, {"measurement": "resazurin conversion (Supplementary Figure 7D)", "setting": "HepG2; HepG2 CTL D7, 500 uM", "value": "86.4 and 89.2 and 85.2 and 81.4 and 85.9 and 81.5"}, {"measurement": "resazurin conversion (Supplementary Figure 7D)", "setting": "HepG2; HepG2 CTL D7, 1000 uM", "value": "71.2 and 56.7 and 60.3 and 67.6 and 70.2 and 66"}, {"measurement": "resazurin conversion (Supplementary Figure 7D)", "setting": "HepG2; HepG2 CTL D7, 2000 uM", "value": "35.7 and 15 and 22 and 29.6 and 28.3 and 27.1"}, {"measurement": "resazurin conversion (Supplementary Figure 7D)", "setting": "HepG2; HepG2 CTL D7, 4000 uM", "value": "7.9 (2×) and 7.7 (3×) and 8"}, {"measurement": "resazurin conversion (Supplementary Figure 7D)", "setting": "HC3X; 10 uM", "value": "103.6 and 112.1 and 116.7 and 110.7 and 88 and 80.4"}, {"measurement": "resazurin conversion (Supplementary Figure 7D)", "setting": "HC3X; 30 uM", "value": "112.5 and 93.4 and 100.9 and 65.5 and 110.1 and 86"}, {"measurement": "resazurin conversion (Supplementary Figure 7D)", "setting": "HC3X; 50 uM", "value": "112.6 and 97.1 and 99.6 and 78.9 and 96.7 and 79.4"}, {"measurement": "resazurin conversion (Supplementary Figure 7D)", "setting": "HC3X; 100 uM", "value": "99 and 94.2 and 111.5 and 113 and 97.2 and 95.7"}, {"measurement": "resazurin conversion (Supplementary Figure 7D)", "setting": "HC3X; 300 uM", "value": "105.9 and 98.6 and 86.6 and 80.1 and 95.6 and 93.9"}, {"measurement": "resazurin conversion (Supplementary Figure 7D)", "setting": "HC3X; 500 uM", "value": "93.3 and 104.7 and 99.6 and 103.7 and 88.7 and 115"}, {"measurement": "resazurin conversion (Supplementary Figure 7D)", "setting": "HC3X; 1000 uM", "value": "89.5 and 109.6 and 93 and 88.2 and 108.4 and 91.9"}, {"measurement": "resazurin conversion (Supplementary Figure 7D)", "setting": "HC3X; 2000 uM", "value": "61.4 and 104.7 and 97.3 and 97.1 and 64.3 and 60.4"}, {"measurement": "resazurin conversion (Supplementary Figure 7D)", "setting": "HC3X; 4000 uM", "value": "43.9 and 48.4 and 38 and 42.8 and 47.8 and 45"}, {"measurement": "IC50/Cmax", "setting": "HC3X; human", "value": 2438.67}]}]}
